One assay relates to MV4-11 cells. Kind of assay: Leukemia cell proliferation inhibition test (ATPlite), MV4-11. It is filed as cell-based. As to conditions: read-out: MV4-11 cell proliferation inhibition effect. In short, it runs like this:
(§1)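 Molm-13 or MV4-11 cells in RPMI with 10% FBS and pen/strep, seeded at 10,000 cells per well, were exposed to serially diluted compound for 72 hours at 37° C, 5% CO2. Total cellular ATP was read by luciferase luminescence. GI50 came from sigmoid fits against the 0.1% DMSO control, in duplicate.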

The target of assay [1] is T1, human FLT3 protein (FLT3 (WT)) (Homo sapiens, UniProt P36888).
T1 construct: human FLT3 protein (intracellular region, 564 to 993 aa); GST; purchased Carna Biosciences; host or cells: baculovirus expression system
T1 sequence (P36888 564-993): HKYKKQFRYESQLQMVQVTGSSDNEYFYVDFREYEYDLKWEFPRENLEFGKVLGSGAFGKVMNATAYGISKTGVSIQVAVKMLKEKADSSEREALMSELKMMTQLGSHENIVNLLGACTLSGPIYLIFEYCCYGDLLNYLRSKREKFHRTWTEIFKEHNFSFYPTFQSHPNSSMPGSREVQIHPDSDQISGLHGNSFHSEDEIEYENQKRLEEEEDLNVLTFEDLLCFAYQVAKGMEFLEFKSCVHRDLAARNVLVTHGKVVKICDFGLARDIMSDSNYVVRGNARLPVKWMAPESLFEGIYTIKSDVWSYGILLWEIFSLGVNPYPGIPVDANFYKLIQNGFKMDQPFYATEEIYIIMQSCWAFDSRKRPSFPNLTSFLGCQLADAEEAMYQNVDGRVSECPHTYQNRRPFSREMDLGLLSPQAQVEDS
In words: FLT3 inhibition test (FLT3 enzyme inhibition, time-resolved fluorescence of substrate peptide phosphorylation). As to conditions: read-out: FLT3 (WT) enzyme inhibition activity. It is filed as biochemical. In short, it runs like this:
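Wild-type human FLT3 (1.2 μg) pre-incubated with compound 15 min at 25° C in 100 mM HEPES pH 7.5, 10 mM MgCl2, 25 mM NaCl, 1 mM DTT. Reaction started with substrate peptide and ATP (final 50 μM), run 30 min at 25° C; phosphorylation read by time-resolved fluorescence.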

A further assay has as its system Molm-13 cells. In words: Leukemia cell proliferation inhibition test (ATPlite), Molm-13. It is filed as cell-based. As to conditions: read-out: MOLM13 cell proliferation inhibition effect. Put shortly:
as §1

Where [2] appears, read: Homo sapiens, MV4-11, 72 h, MV4-11, 72 hours culture, ATPlite, GI50 per method.
The mark [3] stands for this setting: GST-fused human FLT3 (564 to 993 aa), ATP 50 μM.
Where [4] appears, read: Homo sapiens, MOLM-13, 72 h, Molm-13, 72 hours culture, ATPlite, GI50 per method.
The mark [5] stands for this setting: Homo sapiens, MV4-11, MV4-11 cell.
[6] abbreviates: Homo sapiens, MOLM-13, MOLM13 cell.

IC50 data for 28 compounds are collected here from patent US9145415B2, “Nitrogen-containing heterocyclic compound or salt thereof” (FUJIFILM Corporation, priority 2012, dated 2015).

SMILES strings stand for the structures. Like-named read-outs stand apart in the source and are kept apart here.

As to `CN(C)C/C=C/C(=O)N1CCC[C@H]1C(=O)NCCCC#Cc1cnc(Nc2ccc3[nH]ncc3c2)nc1NC1CC1` [Compound 10-74], the IC50 (with MV4-11 cells (setting [2]); in assay [1] (setting [3]); in the assay on Molm-13 cells (setting [4])) was less than 10 nM throughout.
Take `CCCNc1nc(Nc2cccc(C#N)c2)ncc1C#C[C@@H]1CCC[C@H](NC(=O)[C@H](C)N(C)C(=O)/C=C/CN(C)C)C1` [Compound 13-7]: the IC50 (in the assay with MV4-11 cells (setting [2]); in assay [1] (setting [3]); in the assay on Molm-13 cells (setting [4])) was less than 10 nM each time.
On to `COCCCNc1nc(Nc2ccc3[nH]ncc3c2)ncc1C#CCCCNC(=O)[C@@H]1CCCN1C(=O)/C=C/CN(C)C` [Compound 10-68, (S,E)-N-(5-(2-((1H-Indazol-5-yl)amino)-4-((3-methoxypropyl)amino)pyrimidin-5-yl)-4-pentyn-1-yl)-1-(4-(dimethylamino)-2-butenoyl)pyrrolidine-2-carboxamide], for which the IC50 (with MV4-11 cells (setting [2]); in assay [1] (setting [3]); in the assay on Molm-13 cells (setting [4])) was less than 10 nM throughout.
Take `CCCNc1nc(Nc2cccc(F)c2)ncc1C#CCCCNC(=O)[C@@H]1CCCN1C(=O)/C=C/CN(C)C` [Compound 8-15]: the IC50 lay within 100 to 1000 nM in the assay on MV4-11 cells (MV4-11, 72 hours culture, ATPlite, GI50 per method); 10 to 100 nM in assay [1] (setting [3]); 100 to 1000 nM with Molm-13 cells (Molm-13, 72 hours culture, ATPlite, GI50 per method).
For the compound `CNc1nc(Nc2ccc(F)cc2)ncc1C#CCCCNC(=O)[C@@H]1C[C@@H](O)CN1C(=O)/C=C/CN(C)C` [Compound 7-85], the IC50 (with MV4-11 cells (setting [2]); in assay [1] (setting [3]); in the assay with Molm-13 cells (setting [4])) was less than 10 nM throughout.
For the compound `CCCNc1nc(Nc2ccc3[nH]nc(OC)c3c2)ncc1C#CCCCNC(=O)[C@@H]1CCCN1C(=O)/C=C/CN(C)C` [Compound 22-67], the IC50 (with MV4-11 cells (setting [5]); in assay [1] (FLT3 (WT)); in the assay on Molm-13 cells (setting [6])) was less than 10 nM throughout.
As to `C[C@@H](C(=O)NCCCC#Cc1cnc(Nc2ccc(C#N)cc2)nc1NCC1CC1)N(C)C(=O)/C=C/CN(C)C` [Compound 21-12], the IC50 (in the assay on MV4-11 cells (setting [2]); in assay [1] (setting [3]); in the assay on Molm-13 cells (setting [4])) was less than 10 nM throughout.
On to `C=CC(=O)NCC(=O)N(C)c1cccc(NC(=O)c2cnc(NCCc3ccncc3)nc2NCCC)c1` [Compound 1-5], for which the IC50 (in the assay with MV4-11 cells (setting [2]); in assay [1] (setting [3]); with Molm-13 cells (setting [4])) was 10 to 100 nM throughout.
For `CCCNc1nc(Nc2ccc(C(N)=O)cc2)ncc1C(=O)NCCCNC(C)(C)CNC(=O)/C=C/CN(C)C` [Compound 3-24], the IC50 in the assay with MV4-11 cells (setting [2]) was 10 to 100 nM; in assay [1] (setting [3]) it was less than 10 nM; in the assay on Molm-13 cells (setting [4]), 100 to 1000 nM.
Take `COCCCNc1nc(Nc2ccnc(OC)c2)ncc1C#CCCCNC(=O)[C@@H]1C[C@H](F)CN1C(=O)/C=C/CN(C)C` [Compound 9-34, (2S,4S)-1-((E)-4-(Dimethylamino)-2-butenoyl)-4-fluoro-N-(5-(4-((3-methoxypropyl)amino)-2-((methoxypyridin-4-yl)amino)pyrimidin-5-yl)-4-pentyn-1-yl)pyrrolidine-2-carboxamide]: the IC50 (in the assay with MV4-11 cells (setting [2]); in assay [1] (setting [3]); in the assay on Molm-13 cells (setting [4])) was less than 10 nM in each case.
Turning to `CCCNc1nc(Nc2cccc(F)c2)ncc1C(=O)Nc1cccc(NC(=O)[C@H](C)N(C)C(=O)/C=C/CN(C)C)c1` [Compound 6-4, (S,E)-N-(3-(2-(4-(dimethylamino)-N-methyl-2-butenamido)propanamido)phenyl)-2-((3-fluorophenyl)amino)-4-(propylamino)pyrimidine-5-carboxamide], the IC50 (with MV4-11 cells (setting [2]); in assay [1] (setting [3]); in the assay on Molm-13 cells (setting [4])) was less than 10 nM throughout.
As to `CCNc1nc(Nc2ccc3cnn(C)c3c2)ncc1C#CCCCNC(=O)[C@H](C)N(C)C(=O)/C=C/CN(C)C` [Compound 10-57], the IC50 (with MV4-11 cells (setting [2]); in assay [1] (setting [3]); with Molm-13 cells (setting [4])) was less than 10 nM each time.
With `C[C@@H](C(=O)NCCCC#Cc1cnc(Nc2cccc(F)c2)nc1NCCN1CCOCC1)N(C)C(=O)/C=C/CN(C)C` [Compound 10-6], the IC50 (with MV4-11 cells (setting [2]); in assay [1] (setting [3]); in the assay on Molm-13 cells (setting [4])) was less than 10 nM throughout.
Regarding `CCCNc1nc(Nc2ccc(Cn3ccnn3)cc2)ncc1C#CCCCNC(=O)CN(C)C(=O)/C=C/CN(C)C` [Compound 12-12], the values for the IC50 (in the assay with MV4-11 cells (setting [2]); in assay [1] (setting [3]); with Molm-13 cells (setting [4])) were 10 to 100 nM, 10 to 100 nM and less than 10 nM, respectively.
As for `CNc1nc(Nc2ccc(F)cc2)ncc1C#CCCCNC(=O)[C@@H]1C[C@@H](OC)CN1C(=O)/C=C/CN(C)C` [Compound 7-83, (2S,4R)-1-((E)-4-(Dimethylamino)-2-butenoyl)-N-(5-(2-((4-fluorophenyl)amino)-4-(methylamino)pyrimidin-5-yl)-4-pentyn-1-yl)-4-methoxypyrrolidine-2-carboxamide], the IC50 (with MV4-11 cells (setting [2]); in assay [1] (setting [3]); in the assay on Molm-13 cells (setting [4])) was less than 10 nM throughout.
For `CNc1nc(Nc2cccc(F)c2)ncc1C#C[C@@H]1CCC[C@H](NC(=O)[C@H](C)N(C)C(=O)/C=C/CN(C)C)C1` [Compound 15-6], the IC50 (in the assay with MV4-11 cells (setting [2]); in assay [1] (setting [3]); with Molm-13 cells (setting [4])) was less than 10 nM throughout.
`CCCNc1nc(Nc2ccc(C(N)=O)cc2)ncc1C#CCCCNC(=O)CNC(=O)/C=C/CN(C)C` [Compound 7-2]: the IC50 (in the assay with MV4-11 cells (setting [2]); in assay [1] (setting [3]); in the assay on Molm-13 cells (setting [4])) was less than 10 nM in each case.
As to `C[C@@H](C(=O)NCCCC#Cc1cnc(Nc2ccc(C#N)cc2)nc1N1CCC1)N(C)C(=O)/C=C/CN(C)C` [Compound 10-14], the IC50 (with MV4-11 cells (setting [2]); in assay [1] (setting [3]); in the assay with Molm-13 cells (setting [4])) was less than 10 nM each time.
For the compound `CCCNc1nc(Nc2ccc3c(OC)nn(CCOC)c3c2)ncc1C#CCCCNC(=O)[C@@H]1CCCN1C(=O)/C=C/CN(C)C` [Compound 22-55], the IC50 (in the assay with MV4-11 cells (setting [5]); in assay [1] (FLT3 (WT)); with Molm-13 cells (setting [6])) was less than 10 nM throughout.
With `CCCNc1nc(Nc2ccc(C#N)cc2)nc(C)c1C#CCCCNC(=O)[C@H](C)N(C)C(=O)/C=C/CN(C)C` [Compound 19-1, (S,E)-N-(1-((5-(2-((4-cyanophenyl)amino)-4-methyl-6-(propylamino)pyrimidin-5-yl)-4-pentyn-1-yl)amino)-1-oxopropan-2-yl)-4-(dimethylamino)-N-methyl-2-butenamide], the IC50 in the assay with MV4-11 cells (setting [2]) is 100 to 1000 nM; in assay [1] (setting [3]), less than 10 nM; with Molm-13 cells (setting [4]) it was 100 to 1000 nM.
Regarding `CCNc1nc(Nc2ccc3cn[nH]c3c2)ncc1C#CCCCNC(=O)[C@H](C)N(C)C(=O)/C=C/CN(C)C` [Compound 10-64], the IC50 (with MV4-11 cells (setting [2]); in assay [1] (setting [3]); in the assay with Molm-13 cells (setting [4])) was less than 10 nM throughout.
`CCCNc1nc(Nc2ccc3c(c2)c(F)nn3C)ncc1C#CCCCNC(=O)[C@@H]1CCCN1C(=O)/C=C/CN(C)C` [Compound 22-61]: the IC50 (in the assay on MV4-11 cells (setting [5]); in assay [1] (FLT3 (WT)); with Molm-13 cells (setting [6])) was less than 10 nM throughout.
On to `C=CC(=O)N(C)CC(=O)NCCCNC(=O)c1cnc(NC(=O)Nc2ccncc2)nc1NCCC` [Compound 6-12], for which the IC50 in the assay on MV4-11 cells (setting [2]) was 10 to 100 nM; in assay [1] (setting [3]) it was less than 10 nM; with Molm-13 cells (setting [4]), 100 to 1000 nM.
Regarding `CCCNc1nc(Nc2ccc3cnccc3c2)ncc1C(=O)NCCCNC(=O)[C@H](C)N(C)C(=O)/C=C/CN(C)C` [Compound 6-8], the IC50 (in the assay with MV4-11 cells (setting [2]); in assay [1] (setting [3]); with Molm-13 cells (setting [4])) was less than 10 nM throughout.
For the compound `CCCNc1nc(Nc2ccc3scnc3c2)ncc1C#CCCCNC(=O)[C@H](C)N(C)C(=O)/C=C/CN(C)C` [Compound 21-15], the results for the IC50 (in the assay with MV4-11 cells (setting [2]); in assay [1] (setting [3]); with Molm-13 cells (setting [4])) were less than 10 nM, less than 10 nM and 10 to 100 nM, respectively.
Turning to `C=CC(=O)NCC(=O)N1CCC(NC(=O)c2cnc(NCCc3ccncc3)nc2NCCC)C1` (stereo not drawn) [Compound 6-17], the IC50 in the assay with MV4-11 cells (setting [2]) lay in the range of 100 to 1000 nM; in assay [1] (setting [3]) it was 10 to 100 nM; with Molm-13 cells (setting [4]), 100 to 1000 nM.
For the compound `CCCNc1nc(Nc2ccc(C#N)cc2)ncc1C#CCCCNC(=O)CN(C)C(=O)/C=C/CN(C)C` [Compound 7-9, (E)-N-(2-((5-(2-((4-Cyanophenyl)amino)-4-(propylamino)pyrimidin-5-yl)-4-pentyn-1-yl)amino)-2-oxoethyl)-4-(dimethylamino)-N-methyl-2-butenamide], the IC50 (in the assay with MV4-11 cells (setting [2]); in assay [1] (setting [3]); with Molm-13 cells (setting [4])) was less than 10 nM throughout.
`CNc1nc(Nc2ccc(F)cc2)ncc1C#CCCCNC(=O)[C@@H]1CCCN1C(=O)/C=C/CN(C)C` [Compound 21-43]: the IC50 (in the assay on MV4-11 cells (setting [5]); in assay [1] (FLT3 (WT)); with Molm-13 cells (setting [6])) was less than 10 nM each time.
